Test results as given in patent US5238838A (Degussa Aktiengesellschaft, priority 1991, dated 1993).
Entries after “also recorded” stand apart in the source; their conditions may differ.

Experiments:
[1] = system: carnitine amidase (raw extract of strain DSM 6230); test: Activity test of the raw extract of strain DSM 6230 with enantiomerically pure D- and L-carnitine amide; format: biochemical
Description: After 3 days, the contents of the shaking flasks were centrifuged (10 min., 10000 rpms in a refrigerated centrifuge), and the sedimentated cells were taken up in 100 mM potassium phosphate buffer pH 7.5 (an approximately 20% microorganism suspension was produced).
The microorganisms in this suspension must be macerated in the customary manner (e.g. agitation with fine glass beads or ultrasound treatment). The cell maceration was carried out by means of wet grinding with glass beads (diameter 0.3 mm; 2 g beads per 1 ml cell suspension). The glass beads and the coarse cell fragments were centrifuged off by means of centrifugation in a refrigerated centrifuge (5 min. 12000 rpms). The clear supernatant was designated as raw extract and used for further experiments.
The materials for the activity test contained:
400 μl potassium phosphate buffer 0.1 M, pH 7.5
50 μl substrate in 0.1 M potassium phosphate buffer, pH 7.5
50 μl enzyme solution (raw extract)
The following were used as substrates:
a) DL-carnitine amide final concentration in the test 100 mM
b) D-carnitine amide final concentration in the test 50 mM c) L-carnitine amide final concentration in the test 50 mM
The enzyme test was carried out in 1.5 ml Eppendorf vessels at a temperature of 30° C. The reaction was started by the addition of enzyme solution and stopped by acidification. The precipitated protein was centrifuged off (Eppendorf centrifuge 5 min. 12500 rpms) and the supernatant examined. In order to determine the blank reading, a control specimen for the substrate and the enzyme solution was always used.
The definition of the enzyme unit is 1 mU=1 nM converted substrate per minute.
L-carnitine can be determined enzymatically with the carnitine acetyl transferase. The ammonia was determined on the one hand photometrically as indophenol and on the other hand enzymatically with the aid of glutamate dehydrogenase.
The raw extract of this strain was tested with enantiomerically pure D- and L-carnitine amide:
The raw extract was retested for D- and L-carnitine amide and the enzyme test was stopped after 10 min. (there is still sufficient L-carnitine amide in the test batch) and after 5 hours (the L-carnitine amide has reacted to a great extent or completely). The L-amidase activity, relative to the total amidase activity, was 100% after 10 min. and still over 99% after 5 hours.

[2] = system: L-carnitine amidase; test: Substrate spectrum of L-carnitine amidase; format: biochemical, strain DSM 6230
Description: The enzyme test was carried out at 30° C. in 100 mM potassium phosphate buffer pH 8. The substrate concentration was 50 mM.

[3] = system: 20% cell suspension of the strain DSM 6230; test: Conversion with whole cells; format: cell-based
Description: The conversion with whole cells was examined by carrying out the customary enzyme test with a 20% cell suspension of the strain DSM 6230. Result: L-carnitine amide is converted by whole cells with 64% greater activity than by a macerated cell suspension of the same concentration. D-carnitine is not converted. It is therefore to be expected that the conversion of L-carnitine amide to L-carnitine can also be carried out very well by means of immobilized microorganisms. […] Suitable microorganism immobilizates are immobilizates based on alginate or chitosan.

[4] = system: strain DSM 6230; test: Growth of strain DSM 6230 on the test substances (OD660); format: cell-based
Description: 1367 strains were isolated during the screening program. These strains were incubated in 100 ml Erlenmeyer flasks containing 20 ml of the particular enrichment medium in a rotary agitator at 30° C. and 120 rpms. The optical density at 660 nm was taken as an indication for the cell growth.
(§1) In this test, various substances were examined for their induction action. At the same time, the growth on these compounds was followed. The medium used was a minimum medium with 1.0 g/l instead of 0.5 g/l yeast extract, to which 5 g/l of the substance to be tested were added in each instance. The culture without inductor contained 5 g/l yeast extract. All tests were carried out with 20 ml shaking cultures which were incubated 36 h at 30° C. and 120 rpms in a rotating [round]shaking machine. These cultures were inoculated with 1% of an initial culture of strain DSM 6230. L-carnitine amide was used as substrate for the enzyme test.
(§2) At the same time, the growth of the bacteria was followed in these carnitine amide concentrations. The culture conditions corresponded to those in example 3.

[5] = system: L-carnitine amidase; test: Test for the induction of L-carnitine amidase; format: cell-based, strain DSM 6230
Description: as §1, §2

[6] = raw extract of strain DSM 6230, labelled amide as substrate, 50 mM, 30° C.
[7] = 5 g/l of the substance as inductor, 36 h, L-carnitine amide as substrate

For `C[N+](C)(C)C[C@H](O)CC(N)=O` [L-carnitine amide], the “Activity (mU/mg)” value [1, 6] was 1960 mU/mg, the “Activity (mU/ml)” value [1, 6] was 8624 mU/ml and the “L-amidase activity, relative to the total amidase activity” value ([1]; raw extract, enzyme test stopped after 10 min.) was 100%. The “L-amidase activity, relative to the total amidase activity” value ([1]; raw extract, enzyme test stopped after 5 hours) was “over 99%”, the “L-amidase activity (%)” value ([1]; raw extract, relative to total amidase activity) was 100% and the “Hydrolysis / conversion by L-carnitine amidase (in words)” value [2] was “hydrolyzes”. For the same molecule, the “Rel. activity (%)” value ([2]; substrate 50 mM, 30° C., 100 mM potassium phosphate buffer pH 8) was 100%, the “Activity of whole cells, greater than that of a macerated cell suspension of the same concentration” value [3] was 64% and the OD660 ([4]; 5 g/l of the substance in minimum medium with 1.0 g/l yeast extract, 36 h, 30° C.) was 3.5. For the same molecule, the “Growth of the strain on the substance (in words)” value ([4]; strain DSM 6230) was “Good growth”, the “Activity (mU/mg)” value [5, 7] was 1706 mU/mg and the “Activity (mU/ml)” value [5, 7] was 8530 mU/ml. The “Induction of L-carnitine amidase (in words)” value ([5]; strain DSM 6230) was “induced; also recorded: best of the inductors tested”.
